Molecular target: T1, CCR2 (Homo sapiens, UniProt P41597)
T1 construct: Membranes were prepared from THP-1 cells; endogenous in cells; host or cells: THP-1 (human acute monocytic leukaemia cells), membrane preparation
T1 sequence (P41597 1-360 isoform P41597-2): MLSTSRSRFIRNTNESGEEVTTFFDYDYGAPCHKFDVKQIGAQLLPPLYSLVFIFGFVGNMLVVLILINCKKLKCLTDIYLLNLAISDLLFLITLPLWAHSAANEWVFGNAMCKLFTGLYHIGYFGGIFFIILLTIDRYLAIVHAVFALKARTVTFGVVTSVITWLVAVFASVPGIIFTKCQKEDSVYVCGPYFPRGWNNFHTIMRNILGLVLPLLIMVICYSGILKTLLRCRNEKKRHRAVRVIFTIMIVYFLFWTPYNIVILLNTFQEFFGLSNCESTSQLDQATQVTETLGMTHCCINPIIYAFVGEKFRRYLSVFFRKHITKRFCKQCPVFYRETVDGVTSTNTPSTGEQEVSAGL
Assay: CCR2 receptor membrane binding assay ([125I]MCP-1, THP-1 membranes, SPA beads)
Conditions: dissociation constant hKi; THP-1 cell membranes, [125I]MCP-1, bound radioactivity after 8 h
Protocol: The above exemplary substances have been tested for binding to CCR2 using a binding assay as outlined herein below:
THP-1 cells (human acute monocytic leukaemia cells) were cultured under standardized conditions at 37° C. and 5% CO2 in a humidified incubator. THP-1 cells were cultivated in RPMI 1640 medium (Gibco 21875) containing 1% MEM-NEAA (Gibso 11140) 2 mM L-glutamine, 1.5 g/L sodium bicarbonate, 4.5 g/L glucose, 10 mM HEPES and 1.0 mM sodium pyruvate, 90%; 10% fetal calf serum (FCS Gibco 10500-064).
Membranes were prepared from THP-1 cells. THP-1 cells were centrifuged at 300×g at 4° C. for 10 min. The cell pellet was resuspendet in Phosphate Buffer Saline (PBS, including 10 μM Pefabloc and a protease inhibitor mix ‘complete’, Boehringer Mannheim (1 tablet/50 ml)), to a concentration of […]. The membrane preparation was performed by disrupting the cells by nitrogen […] (at 50 bar, for 1 h) in a “Nitrogen Bombe” (Parr Instrument). Cell debris was removed by centrifugation (800×g at 4° C., 1 min). The supernatant was centrifuged at 80000×g, 4° C. for 30 min to sediment the cell membranes. Usually 50 mg of protein (Bradford assay) were yielded from 1×10E9 cells. The membranes were resuspendet in 25 mM HEPES, 25 mM MgCl2, 1 mM CaCl2, 10% Glycerine for storage in aliquots at −80° C. in 25 mM HEPES, 25 mM MgCl2, 1 mM CaCl2, 10% Glycerine and stored at −80° C.
Receptor Membrane Binding Assay:
Perkin Elmer NEX 332 Jod 125 MCP-1, Stock: 2200 Ci/mmol solved in 2000 μl assay buffer, stored at −20° C. THP-1 membrane were adjusted with 25 mM HEPES, pH 7.2; 5 mM MgCl2; 0.5 mM CaCl2; 0.2% BSA assay buffer to a concentration of 2.5 μg/15 μl. Amersham Biosciences PVT-WGA Beads (RPNQ0001) were adjusted with assay buffer to a concentration of 0.24 mg/30 μl. For preparation of the membrane-bead-suspension membranes and beads were incubated for 30 min at RT under rotation (60 rpm) with a ratio of 1:2. Test compounds dissolved in 100% DMSO to a concentration of 10 mM and are further diluted with 100% DMSO to 1 mM. All additional compound dilutions were obtained with assay buffer, final 1% DMSO. Compounds, membrane-bead-suspension and [125I]MCP-1 (ca. 25000 cpm/10 μl) were incubated. Bound radioactivity was determined by scintillation counter after 8 h. Determination of affinity of test compounds (dissociation constant hKi) is calculated by iterative fitting of experimental data using the “easy sys” program, which is based on law of mass action (Schittkowski K. (1994), Numerische Mathematik, Vol. 68, 129-142).

Structure (SMILES) | Ki
Cc1cccc([C@@H]2CCC[C@H](CNc3ncnc(C(=O)N4CCC(N5CCC(N(C)S(C)(=O)=O)CC5)CC4)c3C)O2)c1 [Example 21] | 11 nM
CO[C@@H]1COCC[C@@H]1NC1CCN(C(=O)c2ncnc(NC[C@H]3CCC[C@@H](c4ccccc4)O3)c2C)CC1 [Example 38] | 6 nM
CO[C@H]1COCC[C@H]1NC1CCN(C(=O)c2cc(NC[C@H]3CCC[C@@H](c4ccc(C(F)(F)F)cc4)O3)ncn2)CC1 [Example 28k] | 3 nM
Cc1cccc([C@@H]2CCC[C@H](CNc3nc(C)nc(C(=O)N4CCC(N5CCC(N(C)S(C)(=O)=O)CC5)CC4)c3C)O2)c1 [Example 22] | 11 nM
CO[C@@H]1COCC[C@@H]1NC1CCN(C(=O)c2cc(NC[C@H]3CCC[C@@H](c4ccc(C)cc4)O3)ncn2)CC1 [Example 28i] | 221 nM
CO[C@@H]1COCC[C@@H]1NC1CCN(C(=O)c2ncnc(NC[C@H]3CCC[C@@H](c4cccc(C(F)(F)F)c4)O3)c2C)CC1 [Example 47] | 94 nM
Cc1c(NC[C@@H]2CCC[C@H](c3ccc(Cl)cc3)O2)ncnc1C(=O)N1CCC(N2CCC(N(C)S(C)(=O)=O)CC2)CC1 [Example 6] | 190 nM
CO[C@@H]1COCC[C@@H]1NC1CCN(C(=O)c2ncnc(NC[C@H]3CCC[C@@H](c4ccc(C)cc4)O3)c2C)CC1 [Example 29] | 4 nM
Cc1c(NC[C@H]2CCC[C@@H](c3ccc(C(F)(F)F)nc3)O2)ncnc1C(=O)N1CCC(N2CCC(N(C)S(C)(=O)=O)CC2)CC1 [Example 25] | 418 nM
Cc1c(NCC2CCCC(c3ccccc3)O2)ncnc1C(=O)N1CCC(N2CCC(N(C)S(C)(=O)=O)CC2)CC1 (stereo not drawn) [Example 10] | 142 nM
CO[C@@H]1COCC[C@@H]1NC1CCN(C(=O)c2ncnc(NC[C@H]3CCC[C@@H](c4cccc(C)c4)O3)c2C)CC1 [Example 49] | 4 nM
COC1COCCC1NC1CCN(C(=O)c2ncnc(NCC3CCCC(c4ccc(C(F)(F)F)o4)O3)c2C)CC1 (stereo not drawn) [Example 28e] | 20 nM
CO[C@H]1COCC[C@H]1NC1CCN(C(=O)c2ncnc(NC[C@@H]3CCC[C@H](c4cccc(C(F)(F)F)c4)O3)c2C)CC1 [Example 46] | 302 nM
COC1COCCC1NC1CCN(C(=O)c2ncnc(NC[C@@H]3CCC[C@H](c4ccc(C)c(F)c4)O3)c2C)CC1 (stereo partly drawn) [Example 28c] | 0.4 nM
CO[C@@H]1COCC[C@@H]1NC1CCN(C(=O)c2cc(NC[C@H]3CCC[C@@H](c4ccc(C(F)(F)F)cc4)O3)ncn2)CC1 [Example 28j] | 1 nM
CO[C@H]1COCC[C@H]1NC1CCN(C(=O)c2ncnc(NC[C@H]3CCC[C@@H](c4ccc(Cl)cc4)O3)c2C)CC1 [Example 42] | 8 nM
CO[C@@H]1COCC[C@@H]1NC1CCN(C(=O)c2nc(C)nc(NC[C@H]3CCC[C@@H](c4cccc(C)c4)O3)c2C)CC1 [Example 51] | 8 nM
CO[C@H]1COCC[C@H]1NC1CCN(C(=O)c2ncnc(NC[C@H]3CCC[C@@H](c4cccc(C)c4)O3)c2C)CC1 [Example 48] | 7 nM
CO[C@@H]1COCC[C@@H]1NC1CCN(C(=O)c2nc(C)nc(NC[C@@H]3CCC[C@H](c4cccc(C)c4)O3)c2C)CC1 [Example 35] | 96 nM
CO[C@H]1COCC[C@H]1NC1CCN(C(=O)c2ncnc(NC[C@H]3CCC[C@@H](c4ccc(C)cc4)O3)c2C)CC1 [Example 30] | 5 nM
COc1cc(NC[C@H]2CCC[C@@H](c3ccc(C)cc3)O2)cc(C(=O)N2CCC(N[C@H]3CCOC[C@H]3OC)CC2)n1 [Example 28n] | 38 nM
Cc1ccc([C@@H]2CCC[C@H](CNc3nc(C)nc(C(=O)N4CCC(N5CCC(N(C)S(C)(=O)=O)CC5)CC4)c3C)O2)cc1 [Example 18] | 10 nM
CO[C@H]1COCC[C@H]1NC1CCN(C(=O)c2cc(NC[C@H]3CCC[C@@H](c4ccc(OC(F)(F)F)cc4)O3)ncn2)CC1 [Example 28l] | 2 nM
CCS(=O)(=O)N(C)C1CCN(C2CCN(C(=O)c3ncnc(NC[C@H]4CCC[C@@H](c5ccc(Cl)cc5)O4)c3C)CC2)CC1 [Example 27] | 12 nM
Cc1c(NC[C@@H]2CCC[C@H](c3ccc(C(F)(F)F)cc3)O2)ncnc1C(=O)N1CCC(N2CCC(N(C)S(C)(=O)=O)CC2)CC1 [Example 2] | 151 nM

The remaining lines, values ahead:

Ki | Structure (SMILES)
0.4 nM | COc1nc(NC[C@H]2CCC[C@@H](c3ccc(OC(F)(F)F)cc3)O2)c(C)c(C(=O)N2CCC(N[C@H]3CCOC[C@H]3OC)CC2)n1 [Example 53ae]
1800 nM | Cc1ccc(C2CCC[C@H](CNc3ncnc(C(=O)N4CCC(N5CCCC(c6cccc(C(=O)O)c6)C5)CC4)c3C)O2)cc1 (stereo partly drawn) [Example 57]
0.7 nM | Cc1c(NC[C@H]2CCC[C@@H](c3ccc(OC(F)(F)F)cc3)O2)ncnc1C(=O)N1CCC(N[C@H]2CCOC[C@H]2F)CC1 [Example 53aj]
12 nM | CO[C@H]1COCC[C@H]1NC1CCN(C(=O)c2ncnc(NC[C@H]3CCC[C@@H](c4ccc(OC(F)(F)F)cc4)O3)c2C)CC1 [Example 53f]
0.8 nM | COc1nc(NC[C@H]2CCC[C@@H](c3ccc(C(F)(F)F)cc3)O2)cc(C(=O)N2CCC(N[C@H]3CCOC[C@H]3OC)CC2)n1 [Example 53p]
263 nM | Cc1ccc(C2CCC[C@H](CNc3ncnc(C(=O)N4CCC(N5CCC(c6ccccc6C(=O)O)C5)CC4)c3C)O2)cc1 (stereo partly drawn) [Example 59]
9 nM | CO[C@@H]1COCC[C@@H]1NC1CCN(C(=O)c2nccc(NC[C@H]3CCC[C@@H](c4ccc(C)cc4)O3)c2C)CC1 [Example 53k]
16 nM | CO[C@@H]1COCC[C@@H]1NC1CCN(C(=O)c2ccnc(NC[C@H]3CCC[C@@H](c4ccccc4)O3)c2C)CC1 [Example 53g]
1130 nM | Cc1ccc(C2CCC[C@H](CNc3ncnc(C(=O)N4CCC(N5CCC(c6ccc(C(=O)O)cc6)C5)CC4)c3C)O2)cc1 (stereo partly drawn) [Example 58]
98 nM | CO[C@H]1COCC[C@H]1NC1CCN(C(=O)c2ncnc(NC[C@@H]3CCC[C@H](c4ccc(OC(F)(F)F)cc4)O3)c2C)CC1 [Example 53c]
0.3 nM | CO[C@@H]1COCC[C@@H]1NC1CCN(C(=O)c2ncnc(NC[C@H]3CCC[C@@H](c4ccc(SC(F)(F)F)cc4)O3)c2C)CC1 [Example 53am]
8 nM | COc1nc(NC[C@H]2CCC[C@@H](c3ccccc3)O2)c(C)c(C(=O)N2CCC(N[C@@H]3CCOC[C@@H]3OC)CC2)n1 [Example 53af]
733 nM | Cc1ccc([C@H]2CCC[C@@H](CNc3ncnc(C(=O)N4CCC(N5CCC6(CC5)CC(C(=O)O)c5ccccc56)CC4)c3C)O2)cc1 (stereo partly drawn) [Example 60]
3 nM | Cc1c(NC[C@H]2CCC[C@@H](c3ccc(C(F)(F)F)cc3)O2)ncnc1C(=O)N1CCC(NC2CCOCC2F)CC1 (stereo partly drawn) [Example 53u]
16 nM | CO[C@H]1COCC[C@H]1NC1CCN(C(=O)c2ccnc(NC[C@H]3CCC[C@@H](c4ccc(C)cc4)O3)c2C)CC1 [Example 53e]
0.2 nM | CO[C@H]1COCC[C@H]1NC1CCN(C(=O)c2cc(NC[C@H]3CCC[C@@H](c4ccc(C(F)(F)F)cc4)O3)nc(C(F)(F)F)n2)CC1 [Example 53s]
28 nM | CO[C@H]1COCC[C@H]1N(C)C1CCN(C(=O)c2ncnc(NC[C@H]3CCC[C@@H](c4ccc(C)cc4)O3)c2C)CC1 [Example 54]
19 nM | CO[C@@H]1COCC[C@@H]1NC1CCN(C(=O)c2ncnc(NC[C@@H]3CCC[C@H](c4ccc(OC(F)(F)F)cc4)O3)c2C)CC1 [Example 53d]
2 nM | CO[C@H]1COCC[C@H]1NC1CCN(C(=O)c2ncnc(NC[C@H]3CCC[C@@H](c4ccc(C(F)(F)F)cc4)O3)c2C)CC1 [Example 53]
0.6 nM | Cc1c(NC[C@H]2CCC[C@@H](c3ccc(OC(F)(F)F)cc3)O2)ncnc1C(=O)N1CCC(NC2CCOCC2F)CC1 (stereo partly drawn) [Example 53w]

— US8765949B2, “CCR2 receptor antagonists and uses thereof” (Boehringer Ingelheim International GmbH, priority 2009, dated 2014)
